Data on eight compounds can be found in paper PMC5017001, “Induction of apoptosis and G2/M arrest by ampelopsin E from Dryobalanops towards triple negative breast cancer cells, MDA-MB-231” (BMC Complementary and Alternative Medicine, 2016).

One data set deals with A-549 cells. The experiment in a line: MTT cytotoxicity assay, A-549. Particulars: A-549, 72 h. The data set is classed as cell-based, human. As for the experimental part:
(§1) The cytotoxic effects of the compounds were evaluated by the MTT [3-(4,5-dimethylthiazol-2-yl)-2,5-diphenyltetrazolium bromide] assay. The cells (50,000 cells/mL) were treated with various concentrations of the compounds (0.94–30 μM) in a 96-well plate for 72 h. Untreated controls were also included. Following incubation, 20 μL of 5 mg/mL MTT solution was added to each well and incubated at 37 °C for 3 h. Next, 100 μL of DMSO was added to dissolve the purple precipitate of formazan crystal. The absorbance at 570 nm and 630 nm as reference wavelength was measured by a microplate reader (BioTek EL 800, United States).
(§2) Cell growth inhibition (%) = [1 - (ODTreated/OD Control)] × 100.
(Tetrazolium dyes change colour on reduction, which living cells bring about.)

For data set [1], the system named is mouse embryonic fibroblast NIH/3 T3 cells. Description: MTT cytotoxicity assay, NIH/3T3. Particulars: 3T3, 72 h. The data set is classed as cell-based. The procedure: as §1, §2
The next data set concerns HT-29 cells. Description: MTT cytotoxicity assay, HT-29. The data set is classed as cell-based, human. The following applies: HT-29, 72 h. The procedure: as §1, §2
A further data set relates to HeLa cells. The experiment in a line: MTT cytotoxicity assay, HeLa. Particulars: 72 h. The data set is classed as cell-based, human. As for the experimental part: as §1, §2
Data set [2] deals with MDA-MB-231 cells. Description: MTT cytotoxicity assay, MDA-MB-231. The data set is classed as cell-based, human. Particulars: for IC50: MTT. The procedure:
The cytotoxic effects of the compounds were evaluated by the MTT [3-(4,5-dimethylthiazol-2-yl)-2,5-diphenyltetrazolium bromide] assay. […] Untreated controls were also included. Following incubation, 20 μL of 5 mg/mL MTT solution was added to each well and incubated at 37 °C for 3 h. Next, 100 μL of DMSO was added to dissolve the purple precipitate of formazan crystal. The absorbance at 570 nm and 630 nm as reference wavelength was measured by a microplate reader (BioTek EL 800, United States).
as §2

Data set [3] concerns MCF-7 cells. The experiment in a line: MTT cytotoxicity assay, MCF-7. The data set is classed as cell-based, human. The procedure:
as §1, §2

The test system of data set [4] is MCF-10A normal breast epithelial cells. Description: MTT cytotoxicity assay, MCF10A. The data set is classed as cell-based, human. The following applies: 72 h. As for the experimental part:
as §1, §2

The subject of data set [5] is MCF-7 cells. More on the design: method as in Wibowo et al. [34]. The following applies: MCF-7, ampelopsin E from Dryobalanops beccarii; ref Wibowo et al. [34]; cited from earlier work.
For data set [6], the system named is MDA-MB-231 cells. Description: Cell cycle analysis by flow cytometer. The data set is classed as cell-based, human. The following applies: 15 and 30 μM; 24, 48 and 72 h; p < 0.05. The procedure:
MDA-MB-231 cells were seeded at 800,000 cells per 75 cm^2 flask. Next, the cells were treated with ampelopsin E (7.5–30 μM). The untreated cells were also included as a control. The cells were incubated for 24, 48 and 72 h. Next, the cells were trypsinized, washed twice with ice cold PBS and collected. The cell pellet was fixed with ice-cold 70 % ethanol and stored at −20 °C. After a week, the cells were washed once again with ice-cold PBS. The cell pellet was mixed up with 250 μL Guava cell cycle reagents (EMD, Milliport Corporation, Hayward) and 300 μL PBS. The population of cells in each phase was measured by a flow cytometer (FACSCalibur, Becton Dickinson, USA). The results were analysed by using ModFit LT™ software.

The test system of data set [7] is MDA-MB-231 cells. Description: Morphological changes under inverted light microscope. The data set is classed as cell-based, human. The procedure:
Briefly, 150,000 cells per well of MDA-MB-231 cells were seeded in a 6-well plate and incubated for 24 h. Next, the cells were treated with ampelopsin E (7.5–30 μM) and further incubated for 72 h. The untreated cells were included as a control. The image was captured at 0, 24, 48 and 72 h at the same spot under an inverted microscope (Olympus, Japan).

The test system of data set [8] is MDA-MB-231 cells. The experiment in a line: Annexin V/PI flow cytometric analysis of mode of cell death. The following applies: for percentage of viable cells, lower left quadrant (Annexin-V-/PI-): 24 h; for percentage of early apoptotic cells, lower right quadrant (Annexin-V+/PI-): 72 h. The data set is classed as cell-based, human. The procedure:
Human Annexin V/PI Apoptosis Detection Kit I (BD Biosciences Pharmingen, Franklin Lakes, NJ, USA) was used to determine the mode of cell death induced by ampelopsin E. Briefly, the MDA-MB-231 cells were seeded at 150,000 cells per well in a 6-well plate. Next, the cells were treated with ampelopsin E (7.5–30 μM). The untreated cells were also included as a control. The cells were harvested and washed with 2 mL of ice-cold PBS. Subsequently, the samples were mixed with 100 μL of […] binding buffer on ice. Next, in the dark, 5 μL annexin V and 5 μL of propidium iodide (1 mg/mL) were added with 15 min of incubation on ice. Next, 400 μL of […] binding buffer was added to dilute the samples. The cells were analyzed by using FACS Calibur flow cytometer (Becton Dickinson, USA). The results were analysed by using FlowJo version 8.6 (Treestar Inc., San Carlos, CA).
On the technique in general: Flow cytometry measures light scatter and fluorescence of single cells or particles in a stream.

Like-named read-outs stand apart in the source and are kept apart here. Some results are limits rather than exact numbers.

For `Oc1ccc([C@@H]2c3c(O)cc(O)cc3[C@@H]3c4c(O)cc(O)cc4[C@H]2[C@H]3c2ccc(O)cc2)cc1` [Ampelopsin F, ampelopsin F], the IC50 (in general, the concentration at which inhibition is half-maximal) in the data set on A-549 cells was more than 30 µM; in [1], more than 30 µM; in the data set with HT-29 cells, more than 30 µM; in the data set on HeLa cells, more than 30 µM; in the data set with MDA-MB-231 cells [2] (MDA-MB-231, 72 h) it was more than 30 µM; with MCF-7 cells [3] (MCF-7, 72 h), more than 30 µM.
With `COc1cccc2c1C(=O)c1c(O)c3c(c(O)c1C2=O)C[C@@](O)(C(=O)CO)C[C@@H]3O[C@H]1C[C@H](N)[C@H](O)[C@H](C)O1` [Doxorubicin, reference compound], the IC50 is more than 10 µM in data set [4] (Homo sapiens, MCF-10A); 0.4 µM in the data set with MDA-MB-231 cells [2] (Homo sapiens, MDA-MB-231, 72 h); 0.21 ± 0.27 µM in the data set on MCF-7 cells [3] (Homo sapiens, MCF7, MCF-7, 72 h).
Turning to `Oc1ccc(/C=C/c2c3c(cc4c2[C@@H](c2cc(O)cc(O)c2)[C@H](c2ccc(O)cc2)O4)O[C@H](c2ccc(O)cc2)[C@H]3c2cc(O)cc3c2[C@@H](c2cc(O)cc(O)c2)[C@H](c2ccc(O)cc2)O3)cc1` [Flexuosol A, flexuosol A], the IC50 in the data set with A-549 cells is more than 30 µM; in data set [4], more than 30 µM; in [1], more than 30 µM; with HT-29 cells, more than 30 µM; in the data set with HeLa cells, more than 30 µM; in the data set with MDA-MB-231 cells [2] (MDA-MB-231, 72 h) it was 27.5 ± 3.54 µM. Moreover, the IC50 with MCF-7 cells [3] (MCF-7, 72 h) was more than 30 µM.
In the case of `O=C1O[C@@H]2[C@H](O)COC23O[C@@H](c2ccc(O)cc2)[C@H](c2cc(O)cc4c2[C@@H](c2cc(O)cc(O)c2)[C@H](c2ccc(O)cc2)O4)[C@@]13O` (stereo partly drawn) [Laevifonol, laevifonol], the IC50 in the data set with A-549 cells is more than 30 µM; in [1] it was more than 30 µM; with HT-29 cells, more than 30 µM; in the data set with HeLa cells, more than 30 µM; in the data set with MDA-MB-231 cells [2] (MDA-MB-231, 72 h), more than 30 µM; with MCF-7 cells [3] (MCF-7, 72 h), more than 30 µM.
As to `Oc1ccc(/C=C\c2c3c(cc4c2[C@@H](c2cc(O)cc(O)c2)[C@@H](c2ccc(O)cc2)O4)O[C@H](c2ccc(O)cc2)[C@@H]3c2cc(O)cc(O)c2)cc1` [Malaysianol D], the IC50 in data set [4] is more than 30 µM; in the data set with MDA-MB-231 cells [2] (MDA-MB-231, 72 h), more than 30 µM; with MCF-7 cells [3] (MCF-7, 72 h) it was more than 30 µM.
Consider Malaysianol A, for which the half-inhibitory concentration (IC50) is more than 30 µM in data set [4]; 23 ± 4.24 µM with MDA-MB-231 cells [2] (MDA-MB-231, 72 h); more than 30 µM in the data set with MCF-7 cells [3] (MCF-7, 72 h).
With ampelopsin E, the IC50 with MCF-7 cells [5] was 21 µM; with A-549 cells it was more than 30 µM; in data set [4], more than 30 µM; in data set [1], more than 30 µM; in the data set on HT-29 cells, more than 30 µM; with HeLa cells it was more than 30 µM. In addition, the 50% inhibitory concentration (IC50) was 30 ± 0.13 µM in the data set with MDA-MB-231 cells [2] (MDA-MB-231, 24 h); 16 ± 2.01 µM with MDA-MB-231 cells [2] (MDA-MB-231, 48 h); 14.5 ± 0.71 µM in the data set with MDA-MB-231 cells [2] (MDA-MB-231, 72 h); less than 15 µM in the data set with MDA-MB-231 cells [2] (MDA-MB-231, 72 h, listed as ampelopsin E); 29.5 ± 0.71 µM with MCF-7 cells [3] (MCF-7, 72 h). Besides, the cell cycle arrest result with MDA-MB-231 cells [6] is given as “increase in G2/M population”. Besides, the morphological changes entry in the data set on MDA-MB-231 cells [7] (7.5 μM) is “membrane blebbing”; in the data set on MDA-MB-231 cells [7] (15 μM), “cell shrinkage”; in the data set on MDA-MB-231 cells [7] (30 μM, 48 and 72 h), “Cell detachment, cell shrinkage and formation apoptotic bodies”. Further, the cell viability result with MDA-MB-231 cells [2] (15–30 μM, p < 0.05) is “significant reduction”. Besides, the “percentage of viable cells, lower left quadrant (Annexin-V-/PI-)” value in the data set on MDA-MB-231 cells [8] (7.5 μM) is 75.3%; in the data set with MDA-MB-231 cells [8] (15 μM), 69.0%; in the data set on MDA-MB-231 cells [8] (30 μM), 57.1%. The “percentage of early apoptotic cells, lower right quadrant (Annexin-V+/PI-)” value in the data set on MDA-MB-231 cells [8] (7.5 μM) is 12.9%; in the data set with MDA-MB-231 cells [8] (15 μM), 23.6%; in the data set with MDA-MB-231 cells [8] (30 μM) it was 33.9%. For the same compound, in the data set with MDA-MB-231 cells [8] (7.5-30 μM), the “mode of cell death” value is “induced apoptosis”.
In the case of nepalensinol E, the IC50 was more than 30 µM in the data set on A-549 cells; more than 30 µM in data set [1]; more than 30 µM in the data set on HT-29 cells; more than 30 µM with HeLa cells; more than 30 µM in the data set with MDA-MB-231 cells [2] (MDA-MB-231, 72 h); more than 30 µM with MCF-7 cells [3] (MCF-7, 72 h).
